The source made the active and inactive calls.
How the values were obtained:
[1] = target: T1, Protein skinhead-1 (Caenorhabditis elegans, UniProt P34707); format: functional
T1 sequence (P34707 whole entry): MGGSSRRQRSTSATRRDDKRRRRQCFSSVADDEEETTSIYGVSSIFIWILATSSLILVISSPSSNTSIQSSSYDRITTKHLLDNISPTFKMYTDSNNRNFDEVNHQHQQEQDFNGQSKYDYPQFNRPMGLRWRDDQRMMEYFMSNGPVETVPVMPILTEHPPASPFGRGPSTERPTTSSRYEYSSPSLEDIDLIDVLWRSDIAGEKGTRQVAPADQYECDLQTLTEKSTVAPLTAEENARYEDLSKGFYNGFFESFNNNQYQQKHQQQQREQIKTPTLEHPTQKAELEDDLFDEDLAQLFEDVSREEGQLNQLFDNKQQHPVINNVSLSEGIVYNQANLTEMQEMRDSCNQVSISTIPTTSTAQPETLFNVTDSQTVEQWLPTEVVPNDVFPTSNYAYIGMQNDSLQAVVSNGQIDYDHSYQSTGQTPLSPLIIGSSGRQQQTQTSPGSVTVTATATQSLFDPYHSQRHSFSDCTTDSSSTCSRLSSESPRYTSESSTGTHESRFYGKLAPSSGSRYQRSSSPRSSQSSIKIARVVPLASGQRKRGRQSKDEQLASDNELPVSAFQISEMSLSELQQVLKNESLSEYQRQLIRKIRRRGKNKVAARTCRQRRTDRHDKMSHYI

[2] = target: Disintegrin and metalloproteinase domain-containing protein 17 (Homo sapiens, UniProt P78536); assay: exosite inhibitors of ADAM17, dose response, biochemical (AID 743260)
[3] = viability of uninfected HEp-2 cells – cell-based, HTS, cytotoxicity control for RSV inhibitor project, dose response (AID 2410); format: functional; conditions: human respiratory syncytial virus
[4] = inhibition of ADAM10 peptide cleavage – biochemical, FRET peptide substrate, recombinant human ADAM10, selectivity assay for ADAM17 exosite inhibitor project, dose response (AID 743259);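 note: ADAM10 enzyme cleaving a FRET peptide substrate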
[5] = HIV-1 Vif–A3G interaction blockers – biochemical, TR-FRET, GST-Vif 1-94, biotin-A3G peptide, dose response retest, primary screen (AID 1117319); format: functional;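 note: TR-FRET signal of purified GST-Vif binding a biotinylated A3G peptide; inhibitors lower the FRET signal by blocking Vif and A3G binding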
[6] = viability loss in THP-1 monocytes – THP-1 cells, cytotoxicity control for Vif-APOBEC3G degradation inhibitor project, dose response (AID 1117359); format: functional; conditions: THP-1
[7] = HIV-1 AD8 envelope cell-cell fusion blockers – cherry-pick, dose response (AID 652062); format: functional, cell-based;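 note: luciferase signal from cell-cell fusion driven by HIV-1 clade B AD8 Env; potency is for inhibitors of fusion seen as a drop in luminescence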
[8] = NIH3T3 cell viability loss – ATP luminescence, mouse fibroblasts, counter-screen, dose response (AID 2010); format: functional, cell-based;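 note: cells exposed to compound for about 90 hours before reading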
[9] = viability of HCT116 lacking mutant beta-catenin – cell-based, human colon tumor, dose response (AID 1045); format: functional;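 note: HCT116 colon tumor cells with beta catenin knocked out; cells exposed to compound for 60 hours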
[10] = Trypanosoma cruzi growth suppression in host cells – NIH3T3 host cells, beta-gal luminescence, confirmation (AID 2044); format: functional, cell-based;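 note: intracellular parasites grown in NIH/3T3 mouse fibroblasts as host cells; luminescent beta-galactosidase reporter signal from transgenic T. cruzi replicating inside host cells; inhibitors lower the luminescence signal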
[11] = viability loss in CEM21 cells – cell-based, CellTiter-Glo luminescence, cherry-picked, cytotoxicity control for viral fusion inhibitor project, dose response (AID 652042); format: functional;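 note: potency for signal decrease meaning cytotoxicity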
[12] = viability of PTEN-deleted HCT116 cells – cell-based, HCT116 PTEN knockout, dose response (AID 1047); format: functional;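 note: HCT116 colon tumor cells with PTEN knocked out; cells exposed to compound for 60 hours before readout; potency for loss of cell viability measured by luminescence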
[13] = target: T2, Methionyl-tRNA synthetase, putative (Trypanosoma brucei brucei, UniProt Q38C91); format: functional, Trypanosoma brucei brucei strain 927/4 GUTat10.1
T2 sequence (Q38C91 whole entry): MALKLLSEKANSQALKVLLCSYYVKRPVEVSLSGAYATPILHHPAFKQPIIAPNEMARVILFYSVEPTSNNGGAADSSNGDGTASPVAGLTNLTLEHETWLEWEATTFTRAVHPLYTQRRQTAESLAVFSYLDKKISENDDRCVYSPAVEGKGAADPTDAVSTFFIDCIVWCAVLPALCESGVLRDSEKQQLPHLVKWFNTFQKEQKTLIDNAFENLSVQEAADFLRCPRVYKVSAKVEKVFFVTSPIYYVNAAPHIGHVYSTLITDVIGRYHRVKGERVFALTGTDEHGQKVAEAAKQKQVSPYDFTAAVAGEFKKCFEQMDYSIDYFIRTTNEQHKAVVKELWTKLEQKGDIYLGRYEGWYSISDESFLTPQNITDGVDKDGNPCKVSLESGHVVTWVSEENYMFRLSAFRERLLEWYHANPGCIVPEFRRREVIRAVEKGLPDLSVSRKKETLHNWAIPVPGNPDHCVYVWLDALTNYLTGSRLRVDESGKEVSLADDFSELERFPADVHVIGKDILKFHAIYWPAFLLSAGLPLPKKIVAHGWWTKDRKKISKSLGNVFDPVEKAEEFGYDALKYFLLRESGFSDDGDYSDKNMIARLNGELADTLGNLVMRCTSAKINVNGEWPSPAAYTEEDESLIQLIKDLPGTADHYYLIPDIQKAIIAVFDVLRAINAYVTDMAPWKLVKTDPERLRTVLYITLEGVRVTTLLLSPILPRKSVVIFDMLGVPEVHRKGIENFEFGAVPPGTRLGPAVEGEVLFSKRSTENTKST

[14] = target: T2, Methionyl-tRNA synthetase, putative; format: functional, Trypanosoma brucei brucei strain 927/4 GUTat10.1; remark: listed apart in the source
[15] = Counterscreen for inhibitors of Trypanosoma brucei methionyl tRNA synthetase (MetRS): Luminescence-based cell-based high throughput dose response assay to identify compounds that are cytotoxic to Jurkat human T lymphocyte cells.; format: functional
[16] = target: T3, Rac GTPase-activating protein 1 (Homo sapiens, UniProt Q9H0H5); assay: blockers of MgcRacGAP-driven Rac1 GTP hydrolysis – biochemical, ADP Hunter fluorescence, primary and confirmatory, confirmation (AID 624330); format: functional
T3 sequence (Q9H0H5 whole entry): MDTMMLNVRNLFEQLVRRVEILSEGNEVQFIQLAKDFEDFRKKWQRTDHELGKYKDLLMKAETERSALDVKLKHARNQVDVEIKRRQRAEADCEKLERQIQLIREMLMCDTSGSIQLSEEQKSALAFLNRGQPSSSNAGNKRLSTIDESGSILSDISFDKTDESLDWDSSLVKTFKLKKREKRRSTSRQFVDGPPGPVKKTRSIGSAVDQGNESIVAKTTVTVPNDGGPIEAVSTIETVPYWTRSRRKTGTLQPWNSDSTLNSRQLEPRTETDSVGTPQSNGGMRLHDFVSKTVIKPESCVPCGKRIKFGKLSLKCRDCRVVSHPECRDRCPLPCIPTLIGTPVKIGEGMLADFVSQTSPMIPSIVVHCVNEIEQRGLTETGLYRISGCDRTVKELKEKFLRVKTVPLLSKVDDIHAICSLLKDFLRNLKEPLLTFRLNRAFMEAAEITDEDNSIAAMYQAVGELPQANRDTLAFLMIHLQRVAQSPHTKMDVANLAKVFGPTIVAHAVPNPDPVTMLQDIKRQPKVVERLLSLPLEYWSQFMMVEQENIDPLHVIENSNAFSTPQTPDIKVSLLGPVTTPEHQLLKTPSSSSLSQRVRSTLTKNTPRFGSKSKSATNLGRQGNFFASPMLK

[17] = blockers of HIV-1 envelope-mediated cell-cell fusion – cherry-pick, dose response (AID 652057); format: functional, cell-based
[18] = blockers of HIV-1 ZM109 envelope-driven cell-cell fusion – HeLa effector, CEM target cells, luciferase, cherry-pick, dose response (AID 652058); format: functional, cell-based;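 note: luciferase signal from HIV-1 Env mediated cell-cell fusion of effector and target cells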
[19] = off-target signal loss in HeLa-CEM21 co-culture – HeLa F-luc CTL cells, cherry-picked, counter-screen for HIV-1 Env fusion inhibitor project, dose response (AID 652040); format: functional, cell-based;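 note: potency for signal decrease marking cytotoxic or nonspecific inhibition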
[20] = Luminescence Cell-Based Dose Retest to Confirm Inhibitors of Cancer Stem Cells. [Related pubchem assays (depositor defined):AID2717, AID2721]; format: functional; conditions: Homo sapiens
[21] = growth inhibition of PfATP4-mutant resistant parasites – NITD609-resistant line, SYBR Green, dry powder, dose response (AID 1159571); format: functional, cell-based;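 note: parasites synchronized at ring stage by sorbitol before testing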
[22] = growth inhibition of yeast DHODH-expressing 3D7 parasites – SYBR Green, dry powder samples, dose response (AID 1159570); format: functional, cell-based;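 note: parasite growth measured after 72 hours of compound exposure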
[23] = P. falciparum Dd2 growth inhibitors, dose response, SYBR Green, cherry-picked samples (AID 1159567); format: functional, cell-based
[24] = Dd2 malaria parasite growth inhibition potency – SYBR Green, dry powder samples, dose response (AID 1159566); format: functional, cell-based;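 note: potency for growth inhibition with lower SYBR green DNA signal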
[25] = target: T4, Microphthalmia-associated transcription factor (Homo sapiens, UniProt O75030); assay: reducers of TRPM1 reporter luminescence, concentration series – cell-based, SK-MEL-5, cherry-picked, set 3, MITF inhibitor project, dose response (AID 493073); format: functional;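 note: SK-MEL-5 melanoma cells with luciferase driven by the MITF target TRPM1 promoter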
T4 sequence (O75030 whole entry): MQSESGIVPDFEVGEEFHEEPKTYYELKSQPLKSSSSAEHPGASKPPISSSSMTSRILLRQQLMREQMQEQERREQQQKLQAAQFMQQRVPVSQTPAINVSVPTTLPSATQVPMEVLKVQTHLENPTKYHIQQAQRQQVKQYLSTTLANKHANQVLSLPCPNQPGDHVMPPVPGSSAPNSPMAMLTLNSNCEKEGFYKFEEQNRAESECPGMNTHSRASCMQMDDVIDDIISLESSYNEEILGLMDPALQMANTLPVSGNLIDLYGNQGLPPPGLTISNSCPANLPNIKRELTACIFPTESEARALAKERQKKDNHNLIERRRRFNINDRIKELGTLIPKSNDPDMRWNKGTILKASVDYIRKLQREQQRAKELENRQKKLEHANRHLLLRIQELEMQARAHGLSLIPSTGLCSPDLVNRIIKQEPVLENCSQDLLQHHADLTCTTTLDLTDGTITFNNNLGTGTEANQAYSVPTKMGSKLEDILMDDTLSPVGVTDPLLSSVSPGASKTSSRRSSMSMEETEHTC

Sequence of Disintegrin and metalloproteinase domain-containing protein 17 (P78536 whole entry, the tested form may be a part): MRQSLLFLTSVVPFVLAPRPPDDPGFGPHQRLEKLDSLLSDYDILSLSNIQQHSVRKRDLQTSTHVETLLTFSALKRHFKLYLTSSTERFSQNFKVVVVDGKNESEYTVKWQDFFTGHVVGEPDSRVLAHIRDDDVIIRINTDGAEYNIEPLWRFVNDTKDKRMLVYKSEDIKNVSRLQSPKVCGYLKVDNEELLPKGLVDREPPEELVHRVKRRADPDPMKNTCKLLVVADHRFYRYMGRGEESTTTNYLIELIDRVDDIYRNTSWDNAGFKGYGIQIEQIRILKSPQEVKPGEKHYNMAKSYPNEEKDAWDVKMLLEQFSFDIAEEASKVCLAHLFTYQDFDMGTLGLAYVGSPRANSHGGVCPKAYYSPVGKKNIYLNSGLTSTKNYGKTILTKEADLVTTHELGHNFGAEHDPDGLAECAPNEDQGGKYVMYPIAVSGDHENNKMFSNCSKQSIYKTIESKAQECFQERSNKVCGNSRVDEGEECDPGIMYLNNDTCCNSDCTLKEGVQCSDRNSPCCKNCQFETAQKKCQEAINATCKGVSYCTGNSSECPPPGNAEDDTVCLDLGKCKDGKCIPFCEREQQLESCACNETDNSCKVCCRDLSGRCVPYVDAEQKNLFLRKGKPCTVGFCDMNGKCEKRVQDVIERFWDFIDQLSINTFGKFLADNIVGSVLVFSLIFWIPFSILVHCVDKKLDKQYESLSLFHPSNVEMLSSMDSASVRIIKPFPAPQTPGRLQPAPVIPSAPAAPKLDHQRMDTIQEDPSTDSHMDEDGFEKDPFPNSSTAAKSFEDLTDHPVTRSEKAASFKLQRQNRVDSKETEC

For `Cc1cccc(C)c1N(CC(=O)Nc1cccc(N(C)S(C)(=O)=O)c1)S(C)(=O)=O`, the IC50 [1] was > 100 µM (inactive).

With `Cc1ccccc1-c1nc(S(=O)(=O)c2ccc(Br)cc2)c(NCc2cccnc2)o1` the IC50 [2] was > 69.5 µM (inactive), the CC50 [3] was 21.9 µM (active) and the IC50 [4] was > 69.5 µM (inactive).

In the case of `Cc1ccc(C(=O)OCc2cn3ccccc3n2)cc1`, the IC50 [5] is reported as > 100 µM (active).

For `O=C(COC(=O)Cc1ccc(Cl)cc1)NCc1ccco1`, the CC50 [6] was > 40 µM (active).

In the case of `Cc1cccc(COc2ccccc2C(=O)N(C)CC(=O)Nc2cccc(F)c2)c1`, the IC50 [2] is reported as > 69.5 µM (inactive) and the IC50 [4] is reported as 25.5 µM (inactive).

For `COc1ccc(NC(=O)c2ccc3c(c2)OCO3)cc1Cl`, the IC50 [1] was > 100 µM (inactive).

For `COc1ccc(NC(=O)CSc2nnc(C)n2Cc2ccccc2)cc1`, the IC50 [5] was > 12.5 µM (active).

With `CCCn1c(O)nnc1SCC(=O)c1ccc2c(c1)OCCO2` the IC50 [1] was > 100 µM (inactive).

With `CN(c1ccccc1)c1nc2ccsc2c(=O)s1` the IC50 [1] was > 100 µM (inactive).

With `c1coc(CNc2c3c(nc4ccccc24)CCC3)c1` the AC50 [7] was 32.9 µM (active), the EC50 [8] was > 60 µM (not active) and the EC50 [9] was 27.1 µM (active). For the same compound, the EC50 [10] was 2.41 µM (active), the AC50 [11] was 65 µM (active) and the EC50 [12] was 22.5 µM (active).

For `O=C(NCCCCc1ccccc1)Nc1ccc(F)cc1`, the IC50 [13] was 119 µM (inactive), the IC50 [14] was 44.4 µM (inactive) and the IC50 [15] was 83.4 µM (inactive).

In the case of `CCN(CC)S(=O)(=O)c1cc(NC(=O)Cc2ccc(S(=O)(=O)N3CCOCC3)s2)ccc1Cl`, the IC50 [2] is reported as > 69.5 µM (inactive) and the IC50 [4] is reported as 11.4 µM (inactive).

For `CN(C)S(=O)(=O)c1cccc(NC(=O)c2ccc(-n3cncn3)c([N+](=O)[O-])c2)c1`, the IC50 [13] was 9.02 µM (active), the IC50 [14] was 4.49 µM (active) and the IC50 [15] was 83.3 µM (inactive).

In the case of `O=C(OC(C(=O)c1c[nH]c2ccccc12)c1ccccc1)c1cnccn1` (stereo unspecified), the IC50 [13] is reported as 59.3 µM (inactive), the IC50 [14] is reported as 32.3 µM (inactive) and the IC50 [15] is reported as 83.3 µM (inactive).

In the case of `Nc1ccc(N=Nc2ccc(O)cc2)c(N)n1`, the IC50 [16] is reported as 8.44 µM (active) and the CC50 [6] is reported as 25.8 µM (active).

With `CC(C)C[C@H](CO)N(Cc1ccccc1)S(=O)(=O)N(Cc1ccccc1)[C@@H](CO)CC(C)C` the AC50 [7] was 8.16 µM (active), the AC50 [17] was 2.8 µM (active) and the AC50 [18] was 3.38 µM (active). The AC50 [19] was 12.4 µM (active), the AC50 [11] was 9.89 µM (active) and the AC50 [20] was 3.47 µM (active).

In the case of `O=C(NC1CCCCN(Cc2cccc(Cl)c2)C1=O)c1ccc(COc2ccccc2)cc1` (stereo unspecified), the IC50 [2] is reported as > 69.5 µM (inactive) and the IC50 [4] is reported as 20.7 µM (inactive).

In the case of `Cc1ccc(/N=C2\C(Cl)=C(O)OC2OC(=O)c2ccc(C)cc2)cc1` (stereo unspecified), the IC50 [2] is reported as > 69.5 µM (inactive) and the IC50 [4] is reported as > 7.73 µM (active).

In the case of `O=C(Nc1ccccc1)N1CCCCN2[C@@H](CO)[C@H](c3ccc(C#Cc4cccnc4)cc3)[C@@H]2C1`, the AC50 [21] is reported as 0.573 µM (active), the AC50 [22] is reported as 0.476 µM (active) and the AC50 [23] is reported as 0.633 µM (active). For the same compound, the AC50 [24] was 0.552 µM (active).

With `CCn1c(/C=C/N(C)c2ccccc2)[n+](CC)c2cc(Cl)ccc21` the AC50 [7] was 9.72 µM (active), the AC50 [25] was 6.86 µM (active) and the EC50 [8] was 21.5 µM (active). For the same compound, the AC50 [18] was 59.3 µM (active), the EC50 [10] was 0.286 µM (active) and the AC50 [11] was 35.5 µM (active).
